# From publication PMC6950057, “Toxicity, Pharmacokinetics, and Gut Microbiome of Oral Administration of Sesterterpene MHO7 Derived from a Marine Fungus” (Marine Drugs, 2019)
# Read-outs that look alike come from different tables or passages of the source.
# Legend:
# [1] = tested on: breast cancer cells (MCF-7); parameters: method as in PMID 31175940; details: mechanism of down regulating estrogen receptor alpha (ERα); cited from earlier work
# [2] = Stability in simulated intestinal fluid (SIF); format: in vitro ADME; details: for percentage concentration remaining in SIF: at 8 h
# Protocol: SGF was prepared with modifications according to Lee et al. (2012) by mixing 100 mL of distilled water with a pH value set to 2.0 with hydrochloric acid and 1 g pepsin solution (800–2000 U/mg of protein). SIF was produced according to USP specifications (Test Solutions, United States Pharmacopeia 35, NF 30, 2012). Monobasic potassium phosphate (0.68 g) was dissolved in 25 mL of water. Then, 7.7 mL of 0.2 M NaOH was added to adjust the pH to 6.8. To this, 1 g of pancreatin was added and shaken gently until dissolved and the volume adjusted to 100 mL with water. Pancreatin was added after adjusting the pH of the solution to 6.8 to avoid precipitation of the enzyme.
# Aliquots (199 µL) of SGF and SIF were placed in 1.5 mL microcentrifuge tubes and incubated at 37 °C for 10 min in a water bath, respectively. Different concentrations of MHO7 (1 µL) were added to each of the above microcentrifuge tubes to start the reaction with being incubated at 37 °C at 250 rpm in a shaking water bath. The reaction was stopped by adding ice ACN (800 µL) to each tube at intervals of 0, 0.5, 1, 2, 4, 6, and 8 h. The samples were vortexed for 15 min and centrifuged at 4 °C and 15,000 rpm for 15 min. After centrifuging the supernatant layer was taken directly for LC-MS analysis. Each experiment was carried out in triplicate, and average values were plotted. QC samples were prepared in the same way of inactivating pepsin in SGF incubation system at the concentrations of 1, 0.1 and 0.01 μM·L^−1 for HQC, MQC and LQC, respectively.
# [3] = Log P by shaking flask method (n-octanol/water); format: physicochemical
# Protocol: An HPLC system (Shimadzu, Japan) was equipped with a LC-20AD binary pump system, a SIL-20AD auto sampler, a CBM-20A system controller, and a CTO-20A oven. Separation of MHO7 and IS from endogenous substances was carried out on an Agilent Zorbax XDB C18 column (5 μm, 250 × 4.6 mm, Agilent, Pal Alto, CA, USA), which was kept at 30 °C. The mobile phase was composed of 30% phase A (water) and 70% phase B (acetonitrile) with a flow rate of 1 mL·min^−1. The inject volume of the sample solution was 10 μL.
# The phases of distilled water and n-octanol were saturated with each other by shaking for 48 h with 250 rpm in a shaking water bath prior to use. Solutions of MHO7 was prepared in concentration of 10 mM·L^−1 in n-octanol. Accurately measured amounts of the two solvents with necessary quantity of MHO7 were placed in a 5.0 mL centrifuge tube; then, the mixture was carried out at 250 rpm and designated temperature in the shaking water bath for 48 h to afford complete phase separation. The samples of both phases were collected at 0, 4, 8, 12, 24, 30, 36 and 48 h, diluted with methanol (1:1, V) and determined by HPLC with the detection wavelength of 234 nm. Each set of solvent systems for experimental logP/D value was the mean of the three determinations.
# [4] = Acute toxicity / maximum tolerated dose, oral; format: in vivo, mice; parameters: Body weight / Heart weight / Liver weight / spleen weight / lung weight / kidney weight / Reproductive organs weight / brain weight: unit not given here; details: both sexes, mouse, in vivo, 2400 mg·kg^−1; oral administration, male and female KM mice; read-out: maximum tolerable dose (MTD)
# Protocol: (§1) Male and female KM mice of 8–10 weeks of age (20–22 g) were used in acute toxicity experiment and only female KM mice were subjected in other animal experiments. All mice were purchased from the Vital River Laboratory Animal Technology Co. Ltd. (Beijing, China). The mice were bred in a standard environment (23 ± 1 °C; humidity of 60 ± 5%) with a 12-h light/dark cycle and food and water were provided ad libitum. All animal protocols were approved by the Animal Care and Use Committee of Wuhan University Center for Animal Experiment ABSL-Ⅲ Laboratory and complied with the Guide for the Care and Use of Laboratory Animals (NIH publication, 8th edition, 2011). In total, 130 mice were used for in vivo studies under the ethical approved protocols.
# (§2) Male and female KM mice of 8–10 weeks of age (20–22 g) were used in acute toxicity experiment. After animals were acclimatized for 1 week, 20 female and 20 male mice were randomly and evenly divided into four groups. The mice of acute toxicity experiment were fasted overnight and administered by the oral dose of MHO7 (2400 mg·kg^−1, bw) diluted in corn oil the next morning. Then, mice were placed with free access to chow and water. […] The number surviving and their behaviors was also recorded every day.
# KM mice = assay: Acute toxicity / maximum tolerated dose, oral; format: in vivo; parameters: Body weight / Heart weight / Liver weight / spleen weight / lung weight / kidney weight / Reproductive organs weight / brain weight: unit not given here; details: for Body weight / Heart weight / Liver weight / Reproductive organs weight / brain weight / kidney weight / lung weight / spleen weight: 2400 mg/kg
# Protocol: as §1, §2
# [5] = pH 7, 37 °C, octanol/ddH2O, read-out: Log P/D Value O/W (pH 7.0)
smiles,measurement,setting,value
"CC(C)=C/C=C/[C@H](C)[C@H]1CC[C@]2(C)C[C@@H]3C(C)=CC(=O)[C@H]3/C(C=O)=C\C[C@@H]12 [MHO7, 6-epi-ophiobolin G]",antitumor activity,[1],potent antitumor activity
same,percentage concentration remaining in SIF,"[2]; MHO7 added at 0.05 mM·L^−1, 37 °C",94.83 ± 1.14%
same,percentage concentration remaining in SIF,"[2]; initial addition 0.5 mM·L^−1, 37 °C",89.74 ± 0.86%
same,stability in SIF,[2]; under the concentration of 5 mM·L^−1,stable
same,logP at 4 h,"[3]; 25 °C, read-out: Log P Value",1.23 ± 0.02
same,logP at 8 h,"[3]; 25 °C, read-out: Log P Value",1.22 ± 0.04
same,logP at 12 h,"[3]; 25 °C, read-out: Log P Value",1.23 ± 0.03
same,logP at 24 h,"[3]; 25 °C, read-out: Log P Value",1.23 ± 0.02
same,logP at 30 h,"[3]; 25 °C, read-out: Log P Value",1.27 ± 0.15
same,logP at 36 h,"[3]; 25 °C, read-out: Log P Value",1.27 ± 0.03
same,logP at 48 h,"[3]; 25 °C, read-out: Log P Value",1.29 ± 0.05
same,logP at 4 h,[3]; [5],2.55 ± 0.01
same,logP at 8 h,[3]; [5],2.51 ± 0.04
same,logP at 12 h,[3]; [5],2.48 ± 0.02
same,logP at 24 h,[3]; [5],2.49 ± 0.02
same,logP at 30 h,[3]; [5],2.47 ± 0.01
same,logP at 36 h,[3]; [5],2.49 ± 0.03
same,logP at 48 h,[3]; [5],2.48 ± 0.03
same,MTD at 2 weeks,[4],2400 mg/kg
same,Body weight,KM mice; female mice,33.30±2.1
same,Heart weight,KM mice; female mice,0.15±0.01
same,Liver weight,KM mice; female mice,1.49±0.09
same,Reproductive organs weight,KM mice; female mice,0.21±0.05
same,brain weight,KM mice; female mice,0.40±0.07
same,kidney weight,KM mice; female mice,0.46±0.02
same,lung weight,KM mice; female mice,0.22±0.02
same,spleen weight,KM mice; female mice,0.13±0.05
same,Body weight,KM mice; male mice,38.75±2.96
same,Heart weight,KM mice; male mice,0.18±0.02
same,Liver weight,KM mice; male mice,2.39±0.38
same,Reproductive organs weight,KM mice; male mice,0.19±0.02
same,brain weight,KM mice; male mice,0.42±0.06
same,kidney weight,KM mice; male mice,0.58±0.06
same,lung weight,KM mice; male mice,0.22±0.03
same,spleen weight,KM mice; male mice,0.15±0.03
same,"weight ranges (Table S5), treatment vs control group",KM mice; oral 2400 mg·kg^−1,no significant difference
same,observed toxicity,"KM mice; oral 2400 mg·kg^−1, 14 days observation",No obvious toxicity was observed
same,"body weight, MHO7 group vs control group","KM mice; oral 2400 mg·kg^−1, after seven days",no significant difference
same,diarrhea,"KM mice; oral 2400 mg·kg^−1, female and male mice, returned to normal within two days",a small number of animals with diarrhea was found during the first day
same,tolerability,KM mice; oral administration 2400 mg·kg^−1,well-tolerated
